Data on one molecule can be found in paper PMC13266636 (ACS Medicinal Chemistry Letters, 2026).

Holding throughout (test): stopped-flow CO2 hydration assay
Assay type in all cases: biochemical
Conditions in all cases: read-out: Topiramate; mean of […] assays, errors […]

The target in experiment [1] is T1, hCA XIII (Homo sapiens, UniProt Q8N1Q1).
T1 construct: gene CA13; cytosolic isoform

Experiment [2] concerns the target T2, hCA IX (Homo sapiens, UniProt Q16790).
T2 construct: gene CA9; tumor-associated isoform

The target of experiment [3] is T3, hCA XIV (Homo sapiens, UniProt Q9ULX7).
T3 construct: gene CA14
T3 sequence (Q9ULX7 16-290 limits assumed): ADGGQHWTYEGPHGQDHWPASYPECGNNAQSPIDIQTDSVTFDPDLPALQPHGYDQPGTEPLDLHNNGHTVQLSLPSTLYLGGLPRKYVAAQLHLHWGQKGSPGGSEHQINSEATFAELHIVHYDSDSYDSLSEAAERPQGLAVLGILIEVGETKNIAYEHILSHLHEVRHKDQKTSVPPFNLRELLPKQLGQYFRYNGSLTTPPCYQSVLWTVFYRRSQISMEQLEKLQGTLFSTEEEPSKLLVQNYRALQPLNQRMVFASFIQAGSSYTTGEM

The target in experiment [4] is T4, hCA VI (Homo sapiens, UniProt P23280).
T4 construct: gene CA6
T4 sequence (P23280 18-308): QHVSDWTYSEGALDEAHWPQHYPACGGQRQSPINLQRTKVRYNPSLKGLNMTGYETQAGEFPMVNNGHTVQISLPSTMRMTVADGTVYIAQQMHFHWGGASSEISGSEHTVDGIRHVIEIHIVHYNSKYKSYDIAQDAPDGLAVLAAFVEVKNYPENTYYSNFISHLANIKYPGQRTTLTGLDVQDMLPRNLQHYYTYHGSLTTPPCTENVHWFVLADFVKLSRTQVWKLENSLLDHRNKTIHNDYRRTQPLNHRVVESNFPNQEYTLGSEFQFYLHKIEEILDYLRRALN

T1 sequence (Q8N1Q1 whole entry, canonical isoform): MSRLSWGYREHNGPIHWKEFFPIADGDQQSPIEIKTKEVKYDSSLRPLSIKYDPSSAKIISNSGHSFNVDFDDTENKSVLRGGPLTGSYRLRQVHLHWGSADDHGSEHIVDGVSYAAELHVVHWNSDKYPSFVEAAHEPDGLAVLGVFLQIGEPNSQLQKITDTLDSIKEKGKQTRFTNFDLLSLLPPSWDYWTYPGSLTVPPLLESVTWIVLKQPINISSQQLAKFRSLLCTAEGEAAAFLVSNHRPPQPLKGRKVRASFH

For the molecule `CC1(C)O[C@@H]2[C@@H](CO[C@@]3(COS(N)(=O)=O)OC(C)(C)O[C@@H]23)O1` [Topiramate], the Ki in experiment [1] came out at 47 nM; in experiment [2] it was […]; in experiment [3] it was 1460 nM; in experiment [4] it was 45 nM.
